Results reported in PMC7956643, “Synthesis of Novel Pyrido[1,2-c]pyrimidine Derivatives with 6-Fluoro-3-(4-piperidynyl)-1,2-benzisoxazole Moiety as Potential SSRI and 5-HT1A Receptor Ligands” (International Journal of Molecular Sciences, 2021).

Columns and labels:
SERT protein = target: T1, SERT protein (Rattus norvegicus, UniProt P31652); test: SERT radioligand binding assay; details: [3H]-citalopram 1.0 nM; rat cortex tissue
T1 construct: from tissue; host or cells: rat cortex
Method: Radioligand binding was performed using rat cortex tissue. All assays were carried out in duplicate. First, 50 µL working solution of the tested compounds, 50 µL [^3H]-citalopram (final concentration 1.0 nM) and 150 µL tissue suspension, prepared in assay buffer (50 mM Tris. pH 7.7; 150 mM NaCl; 5 mM KCl), were transferred to a polypropylene 96-well microplate using 96-wells pipetting station Rainin Liquidator (MettlerToledo). […] The reaction was terminated by rapid filtration through GF/B filter mate presoaked with 0.3% polyethyleneimine for 30 min. Ten rapid washes with 200 µL 50 mM Tris buffer (4 °C, pH 7.7) were performed using an automated harvester system—Harvester-96 MACH III FM (Tomtec). […] Data were fitted to a one-site curve-fitting equation with Prism 6 (GraphPad Software) and Ki values were estimated from the Cheng–Prusoff equation.

D2 receptors = target: T2, D2 receptors (Homo sapiens, UniProt P14416); test: D2 radioligand binding assay; details: [3H]-raclopride; HEK293 cells, human receptor
T2 construct: expressed in transfected cells
T2 sequence (P14416 whole entry): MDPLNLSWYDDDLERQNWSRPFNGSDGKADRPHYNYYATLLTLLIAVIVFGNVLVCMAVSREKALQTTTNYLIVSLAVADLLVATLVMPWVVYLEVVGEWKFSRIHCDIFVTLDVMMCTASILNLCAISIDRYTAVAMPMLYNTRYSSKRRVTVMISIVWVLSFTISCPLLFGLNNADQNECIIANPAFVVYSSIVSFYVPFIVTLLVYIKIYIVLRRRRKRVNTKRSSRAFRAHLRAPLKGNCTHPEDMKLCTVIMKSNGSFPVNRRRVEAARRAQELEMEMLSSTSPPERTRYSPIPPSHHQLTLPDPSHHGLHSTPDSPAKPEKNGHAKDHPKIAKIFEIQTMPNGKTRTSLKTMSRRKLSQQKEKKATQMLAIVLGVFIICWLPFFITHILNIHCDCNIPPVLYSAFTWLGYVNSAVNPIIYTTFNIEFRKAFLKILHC
Method: (§1) In vitro radioligand binding assays for 5-HT2A, 5-HT6, 5-HT7 and D2 receptors were carried out using methods published by Zajdel et al.. For the assays, HEK293 cell cultures stably expressing the investigated human receptors were used. Cell pellets were thawed and homogenized in 20 vol of assay buffer using an Ultra Turrax tissue homogenizer, then centrifuged twice at 35000 g for 20 min at 4 °C, with incubation for 15 min at 37 °C in between. The composition of the assay buffers was as follows: for 5-HT2A receptors—50 mM Tris-HCl, 0.1 mM EDTA, 4 mM MgCl2 and 0.1% ascorbate; for 5-HT6 receptors—50 mM Tris-HCl, 0.5 mM EDTA, 4 mM MgCl2; for 5-HT7 receptors—50 mM Tris-HCl, 4 mM MgCl2, 10 µM pargyline and 0.1% ascorbate; for D2 receptors—50 mM Tris-HCl, 1 mM EDTA, 4 mM MgCl2, 120 mM NaCl, 5 mM KCl, 1.5 mM CaCl2 and 0.1% ascorbate. All assays were incubated in total volume of […] in 96-well microtitre plates for 1 h at 37 °C, except for 5-HT2A receptors which were incubated at room temperature for 1.5 h. The process of equilibration was terminated by rapid filtration through Unifilter plates with a 96-well cell harvester, and radioactivity retained on the filters was quantified on a Microbeta plate reader (PerkinElmer, USA). For displacement studies, the assay samples contained as radioligands (PerkinElmer): 2 nM [^3H]-ketanserin (spec. act. 53.4 Ci/mmol) for 5-HT2A receptors; 2 nM [^3H]-LSD (spec. act. 83.6 Ci/mmol) for 5-HT6 receptors; 0.6 nM [^3H]-5-CT (spec. act. 39.2 Ci/mmol) for 5-HT7 receptors and [^3H]-raclopride (spec. act. 76.0 Ci/mmol) for D2 receptors. […] Each compound was tested in triplicate at 7–8 concentrations (10^-11-10^-4 M). The inhibition constants (Ki) were calculated from the Cheng–Prusoff equation [46]. Results were expressed as means of at least two separate experiments.

[1] = Metabolic stability in pooled human liver microsomes; format: in vitro ADME; details: pH 7.4, pooled HLMs 1 mg/mL, NADPH, 1 µM compound, 37 °C
Method: Stock solutions of studied compounds were prepared at concentration of 100 µM in 1:1 acetonitrile/water mixture. Incubation mixes consisted 1 μM of a studied compound, 100 µM of NADPH in phosphate buffer and 1 mg/mL of pooled HLMs (Sigma-Aldrich, St. Louis, MO, USA) in potassium phosphate buffer (0.1 M, pH 7.4). Incubation was carried out in 96-well plates at 37 °C. Incubation mixtures (excluding compound solution) were subjected to 5 min preincubations, and started by addition of 10 µL of compound stock solution. After 0, 5, 10, 15, and 30 min, 25 µL samples of incubation reaction were added to the equal volume of ice-cold acetonitrile containing 1 µM of IS (buspirone hydrochloride). Control incubations were performed without NADPH to assess possible chemical instability. All samples were immediately centrifuged (10 min, 10,000 rpm) and the resulting supernatant was directly subjected to LC-MS analysis.
LC-MS analysis was performed on an Agilent 1260 system coupled to SingleQuad 6120 mass spectrometer (Agilent Technologies, Santa Clara, CA, USA). A Poroshell C18 EC120 column (3.0 × 100 mm^2, 2.7 μm, Agilent Technologies, Santa Clara, CA, USA) was used in reversed-phase mode with gradient elution starting with 90% of phase A (0.1% formic acid in deionised water) and 10% of phase B (0.1% formic acid in acetonitrile). […]

5-HT6 receptors = target: T3, 5-HT6 receptors (Homo sapiens, UniProt P50406); test: 5-HT6 radioligand binding assay; details: [3H]-LSD; HEK293 cells, human receptor
T3 construct: expressed in transfected cells
T3 sequence (P50406 whole entry): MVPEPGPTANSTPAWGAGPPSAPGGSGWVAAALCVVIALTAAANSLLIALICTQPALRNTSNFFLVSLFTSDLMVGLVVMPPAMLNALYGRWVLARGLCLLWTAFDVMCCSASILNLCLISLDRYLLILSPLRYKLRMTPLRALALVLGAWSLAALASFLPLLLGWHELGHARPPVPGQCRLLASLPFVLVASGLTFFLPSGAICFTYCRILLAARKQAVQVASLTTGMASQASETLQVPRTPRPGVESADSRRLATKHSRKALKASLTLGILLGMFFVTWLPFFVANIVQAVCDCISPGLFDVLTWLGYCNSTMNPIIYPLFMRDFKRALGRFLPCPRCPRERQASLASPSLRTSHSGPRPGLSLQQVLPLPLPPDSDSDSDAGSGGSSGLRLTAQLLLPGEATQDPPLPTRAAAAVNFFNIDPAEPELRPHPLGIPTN
Method: as §1

T1 sequence (P31652 whole entry): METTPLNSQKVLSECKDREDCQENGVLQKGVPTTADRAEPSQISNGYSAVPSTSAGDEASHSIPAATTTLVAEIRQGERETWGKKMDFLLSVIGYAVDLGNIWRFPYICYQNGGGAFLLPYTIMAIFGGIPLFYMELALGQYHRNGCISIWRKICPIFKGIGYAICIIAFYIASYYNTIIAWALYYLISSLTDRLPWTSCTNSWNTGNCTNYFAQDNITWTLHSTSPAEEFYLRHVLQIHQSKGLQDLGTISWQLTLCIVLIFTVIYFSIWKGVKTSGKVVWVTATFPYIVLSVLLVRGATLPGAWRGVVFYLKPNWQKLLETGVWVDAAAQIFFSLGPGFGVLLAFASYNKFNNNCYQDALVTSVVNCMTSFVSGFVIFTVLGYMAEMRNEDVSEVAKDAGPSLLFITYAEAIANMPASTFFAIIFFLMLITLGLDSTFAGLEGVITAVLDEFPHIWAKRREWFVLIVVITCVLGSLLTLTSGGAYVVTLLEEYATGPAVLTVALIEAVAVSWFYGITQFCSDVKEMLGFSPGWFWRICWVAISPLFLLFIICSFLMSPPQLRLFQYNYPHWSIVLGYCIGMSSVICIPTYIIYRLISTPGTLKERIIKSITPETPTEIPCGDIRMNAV

SMILES | Ki (SERT protein) | Ki (D2 receptors) | melting point | half-life at 1 µM [1] | Ki (5-HT6 receptors)
O=c1c(-c2ccccc2)c2ccccn2c(=O)n1CCCCN1CCC(c2noc3cc(F)ccc23)CC1 [Compound 6a, 4-Phenyl-2-{4-[4-(6-fluoro-1,2-benzoxazol-3-yl)-1-piperidyl]butyl}-pyrido[1,2-c]pyrimidine-1,3-dione] | 32 ± 3.6 nM | 7 ± 2 nM | 132 to 133 °C | 3.61 min | 376 ± 58 nM
O=c1c(-c2ccccc2Cl)c2ccccn2c(=O)n1CCCCN1CCC(c2noc3cc(F)ccc23)CC1 [Compound 6d, 4-(2-Chlorophenyl)-2-{4-[4-(6-fluoro-1,2-benzoxazol)-1-piperidyl]butyl}-pyrido[1,2-c]pyrimidine-1,3-dione] | 373 ± 32 nM | 9 ± 2 nM | 69 to 74 °C | 3.2 min | 709 ± 135 nM
